Reference: US12371434B2, “MLL1 inhibitors and anti-cancer agents” (NOVARTIS AG, priority 2020, dated 2025)

Experiments:
[1] = target: wild type MLL1 four-member complex (MLL1-4C) (Homo sapiens, UniProt Q03164); test: MLL1 LC-MS assay; assay type: biochemical; conditions: 30 nM MLL1-4C, 2.5 μM SAM, 10 μM H3K4me0; SAH production by LC-MS/MS; read-out: MLL1 LCMS
Summary of the method: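 Compound (8 or 12 points, 3-fold) preincubated 20 min with MLL1-4C and SAM; reaction started with H3K4me0 biotinylated peptide (final 30 nM enzyme, 2.5 μM SAM, 10 μM substrate, pH 8.0), 120 min at rt. TFA quench with d4-SAH; SAH quantified by LC-MS/MS, normalised to controls and fitted for IC50.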

[2] = target: wild type MLL1 five-member complex (MLL1-5C) (Homo sapiens, UniProt Q03164); test: MLL1 Flashplate assay; assay type: biochemical; conditions: 2.5 nM MLL1-5C, 0.5 μM 3H-SAM, 1 μM H3K4me0; read-out: MLL1 flash plate
H3K4me3 in MV4-11 cells = test: MV4-11 H3K4Me3 cellular ELISA assay; assay type: cell-based; conditions: Homo sapiens, 48 hours, H3K4me3 signal normalized to total H3
MV4-11 cells = test: MV4-11 6-day cell growth CTG (CellTiter-Glo) assay; assay type: cell-based; conditions: Homo sapiens, 144 h, 6 days
Description: MV4-11 6-Day Cell Growth CTG (CellTiter-Glo) Assay
Acute myeloid leukemia cell MV4-11 (ATCC® CRL-9591™) was cultured with RPMI 1640 medium (Thermo Fisher Scientific, cat #11875) supplemented with 10% FBS (Thermo Fisher Scientific, cat #10099141) in humidified incubator at 37° C., 5% CO2. To assess the effect of MLL1 inhibition on cell growth, the compound of the present invention was dissolved in DMSO and serially diluted at 1:3 for 12 points starting from 10 mM then 200 nL for the replicate of each dose per well was dispensed to Viewplate-384 Black (Perkin Elmer). Exponentially growing MV4-11 cells were seeded at the density of 300 cells per well in 40 μL to the plate, so the final compound working concentration starts from 50 μM. After 6 days, 40 μL CellTiter-Glo (Promega, cat #G7573) was added into the cell culture well and luminescence was read with Envision (Perkin Elmer) to determine the viable cells. The percentage inhibition was calculated against the samples treated with DMSO only and the data were used for dose response curve fitting in GraphPad Prism to get the IC50 of representative compound of present invention, which reflects the inhibition of MLL1 activity.

SMILES	IC50 [1]	IC50 [2]	IC50 (H3K4me3 in MV4-11 cells)	IC50 (MV4-11 cells)
Nc1ncnc2c1ncn2Cc1c(OCCC[C@@H](N)c2nc[nH]n2)ccc(Cl)c1Cl [Example 48, (R)-9-(6-(4-amino-4-(1H-1,2,4-triazol-3-yl)butoxy)-2,3-dichlorobenzyl)-9H-purin-6-amine]	< 50 nM	< 60 nM	< 1900 nM	< 2000 nM
Cc1nnc([C@H](N)CCCOc2ccc(Cl)c(Cl)c2Cn2cnc3c(N)ncnc32)s1 [Example 50, (R)-9-(6-(4-amino-4-(5-methyl-1,3,4-thiadiazol-2-yl)butoxy)-2,3-dichlorobenzyl)-9H-purin-6-amine]	< 50 nM	< 60 nM	> 3000 nM	> 3000 nM
CN(C)C[C@H](N)CCCOc1ccc(Cl)c(Cl)c1Cn1cnc2c(N)ncnc21 [Example 53, (R)-5-(2-((6-amino-9H-purin-9-yl)methyl)-3,4-dichlorophenoxy)-N^1,N^1-dimethylpentane-1,2-diamine]	> 100 nM	> 100 nM	> 3000 nM	> 3000 nM
